From US20080003635A1, “High Throughput Collagen Synthesis Assay” (InterMune, Inc., priority 2006, published 2008) come the findings set out here.

Like-named read-outs stand apart in the source and are kept apart here.

The test has as its system Human lung fibroblast cells HFL1. The test is described as follows: cells. The test is classed as cell-based. On the procedure: Human lung fibroblast cells HFL1 were seeded as 5×10^4 cells/well in 48-well plate and cultured for 3-7 days in FK12 medium supplemented with 10% heat inactivated fetal calf serum, 2 mM L-glutamine, streptomycin (100 μg/ml), and penicillin (100 units/ml). […] Medium was removed and cells were fixed to the plate with 0.5% glutaraldehyde, prepared in 1× phosphate-buffered-saline (PBS), for 30 minutes at room temperature. Glutaraldehyde was removed, cells were washed with ddH2O and the first 24 wells, which were used to determine collagen synthesis, were treated with 0.5 M acetic acid for 30 minutes, while the second 24 wells were stained with 0.1% crystal violet for viability for 30 minutes at room temperature. After all of the wells were washed with ddH2O, 250 μl of Sirius Red was added to acetic acid-treated cells for 2 hours. The Sirius Red was then removed, and the wells were washed with ddH2O. Absorbed Sirius Red and crystal violet were eluted with 300 μl of alkaline solution and 0.1 M citric acid (pH: 4.2) prepared in 50% ethanol, respectively.
Absorbances of eluted Sirius Red and crystal violet were determined at 540 and 600 nm. The extent of collagen accumulation was determined by normalizing the levels of induced collagen to cell density.

Turning to `Cc1ccc(=O)n(-c2ccccc2)c1` [P, pirfenidone], the fold induction at 1000 µM (HFL1, 24 h, read-out: Fold Induction of Collagen, 250 pg/ml TGF-β, 24 hrs., P 1 mM, A 300 pg/mL) was found to be 0.973; the fold induction at 1000 µM (HFL1, 24 h, read-out: Fold Induction of Collagen, 500 pg/ml TGF-β, 24 hrs., P 1 mM, A 300 pg/mL) stood at 0.98; the fold induction at 1000 µM (HFL1, 24 h, read-out: Fold Induction of Collagen, 1000 pg/ml TGF-β, 24 hrs., P 1 mM, A 300 pg/mL) amounted to 0.998; the fold induction at 1000 µM (HFL1, 48 h, read-out: Fold Induction of Collagen, 250 pg/ml TGF-β, 48 hrs., P 1 mM, A 300 pg/mL) amounted to 0.997; the fold induction at 1000 µM (HFL1, 48 h, read-out: Fold Induction of Collagen, 500 pg/ml TGF-β, 48 hrs., P 1 mM, A 300 pg/mL) is 0.884; the fold induction at 1000 µM (HFL1, 48 h, read-out: Fold Induction of Collagen, 1000 pg/ml TGF-β, 48 hrs., P 1 mM, A 300 pg/mL) amounted to 0.954. Further, the fold induction at 1000 µM (HFL1, 72 h, read-out: Fold Induction of Collagen, 250 pg/ml TGF-β, 72 hrs., P 1 mM, A 300 pg/mL) was determined as 0.928; the fold induction at 1000 µM (HFL1, 72 h, read-out: Fold Induction of Collagen, 500 pg/ml TGF-β, 72 hrs., P 1 mM, A 300 pg/mL) amounted to 0.931; the fold induction at 1000 µM (HFL1, 72 h, read-out: Fold Induction of Collagen, 1000 pg/ml TGF-β, 72 hrs., P 1 mM, A 300 pg/mL) was found to be 0.917.
